Experimental data reported in US20220395472A1 (Dermavant Sciences GmbH, priority 2021, published 2022).

Test system: adults with plaque psoriasis
Assay: Long-term open-label extension study (PSOARING 3): Physician Global Assessment (PGA), treatment episodes, treatment success, remittive effect
Assay type: in vivo, human
Procedure: This extension study consisted of up to 40 weeks of treatment and a 4 week, safety follow up period.
At the completion of the Week 12 visit of the DB, pivotal Phase 3 study, eligibility of the subjects opting to enroll in this extension study was confirmed. Study visits during the treatment period for all subjects occurred every 4 weeks (±3 days). A phone call was performed at Week 2 (Day 15). Unscheduled visits may have occurred, as needed. Subjects who withdrew from this study before Week 40 returned to the study center for an Early Termination visit. The total duration of this extension study participation was 44 weeks. Subjects in this study were treated as follows based on their PGA score from the Week 12 visit in the DB, pivotal Phase 3 study (Study DMVT 505 3001 or Study DMVT 505 3002).
The PGA was used to assess the primary efficacy endpoint in this study. The PGA is a clinical tool for assessing the current state/severity of a subject's psoriasis at a given time point. It is a static, 5 point, morphological assessment of overall disease severity, as determined by the Investigator, using the clinical characteristics of erythema, scaling, and plaque thickness/elevation as guidelines; higher PGA scores represent more severe disease (0=clear, 1=almost clear, 2=mild, 3=moderate, and 4=severe). The BSA affected was not considered in scoring of the PGA. Variations of the PGA are frequently used in clinical studies because it is a simple assessment, similar to those used in clinical practice. The PGA was performed first, prior to the % BSA, PASI, and LTS assessments.
Time to event parameters, such as the time from treatment success to subsequent worsening (PGA≥2) or duration of treatment episode, were summarized by the Kaplan Meier product limit method using OC.

[1] = Baseline PGA = 1, Tapinarof (Pivotal) group
[2] = Baseline PGA = 1, Vehicle (Pivotal) group
[3] = Baseline PGA = 2, Tapinarof (Pivotal) group

CC(C)c1c(O)cc(/C=C/c2ccccc2)cc1O [Tapinarof, 3,5-Dihydroxy-4-isopropyl-trans-stilbene]
Duration of 3rd Success, Mean (SD) (Baseline PGA = 1, Overall): 15.0 (19.80) days | Duration of 3rd Success, Median (Baseline PGA = 1, Overall): 15.0 days | Duration of Last Episode, Mean (SD) (Baseline PGA = 1, Overall): 146.7 (95.87) days | Duration of Last Episode, Median (Baseline PGA = 1, Overall): 141.0 days | Duration of Last Success, Median (Baseline PGA = 1, Overall): 90.0 days | Total Duration of Treatment Episodes, Mean (SD) (Baseline PGA = 1, Overall): 165.9 (90.32) days | Total Duration of Treatment Episodes, Median (Baseline PGA = 1, Overall): 193.0 days | Total Duration of Treatment Success, Mean (SD) (Baseline PGA = 1, Overall): 124.5 (78.53) days | Total Duration of Treatment Success, Median (Baseline PGA = 1, Overall): 120.0 days | Average Duration of Episodes, Mean (SD) [1]: 138.9 (94.99) days | Average Duration of Episodes, Median [1]: 112.0 days | Average Duration of Treatment Success, Mean (SD) [1]: 106.8 (76.36) days | Average Duration of Treatment Success, Median [1]: 92.5 days | Duration of 1st Episode, Mean (SD) [1]: 132.6 (99.69) days | Duration of 1st Episode, Median [1]: 85.5 days | Duration of 1st Success, Mean (SD) [1]: 106.3 (77.57) days | Duration of 1st Success, Median [1]: 86.0 days | Duration of 2nd Episode, Mean (SD) [1]: 97.9 (62.19) days | Duration of 2nd Episode, Median [1]: 83.0 days | Duration of 2nd Success, Mean (SD) [1]: 71.6 (58.68) days | Duration of 2nd Success, Median [1]: 52.0 days | Duration of 3rd Episode, Mean (SD) [1]: 54.9 (56.83) days | Duration of 3rd Episode, Median [1]: 28.0 days | Duration of 3rd Success, Mean (SD) [1]: 15.0 (19.80) days | Duration of 3rd Success, Median [1]: 15.0 days | Duration of Last Episode, Mean (SD) [1]: 145.2 (96.38) days | Duration of Last Episode, Median [1]: 144.0 days | Duration of Last Success, Mean (SD) [1]: 107.2 (79.80) days | Duration of Last Success, Median [1]: 85.5 days | Total Duration of Treatment Episodes, Mean (SD) [1]: 165.9 (90.68) days | Total Duration of Treatment Episodes, Median [1]: 194.5 days | Total Duration of Treatment Success, Mean (SD) [1]: 123.7 (78.29) days | Total Duration of Treatment Success, Median [1]: 116.5 days | Average Duration of Episodes, Mean (SD) [2]: 150.0 (97.54) days | Average Duration of Episodes, Median [2]: 112.0 days | Average Duration of Treatment Success, Mean (SD) [2]: 116.9 (71.80) days | Average Duration of Treatment Success, Median [2]: 127.0 days | Duration of 1st Episode, Mean (SD) [2]: 141.1 (105.95) days | Duration of 1st Episode, Median [2]: 112.0 days | Duration of 1st Success, Mean (SD) [2]: 115.0 (71.74) days | Duration of 1st Success, Median [2]: 127.0 days | Duration of 2nd Episode, Mean (SD) [2]: 104.0 (61.27) days | Duration of 2nd Episode, Median [2]: 109.5 days | Duration of 2nd Success, Mean (SD) [2]: 144.0 (NE) days | Duration of 2nd Success, Median [2]: 144.0 days | Duration of Last Episode, Mean (SD) [2]: 159.0 (93.38) days | Duration of Last Episode, Median [2]: 134.0 days | Duration of Last Success, Mean (SD) [2]: 118.9 (72.32) days | Duration of Last Success, Median [2]: 136.0 days | Total Duration of Treatment Episodes, Mean (SD) [2]: 165.5 (89.94) days | Total Duration of Treatment Episodes, Median [2]: 140.0 days | Total Duration of Treatment Success, Mean (SD) [2]: 131.0 (85.06) days | Total Duration of Treatment Success, Median [2]: 136.0 days | Average Duration of Episodes, Mean (SD) (Baseline PGA = 2, Overall): 175.5 (93.95) days | Average Duration of Episodes, Median (Baseline PGA = 2, Overall): 197.0 days | Average Duration of Treatment Success, Mean (SD) (Baseline PGA = 2, Overall): 83.6 (69.31) days | Average Duration of Treatment Success, Median (Baseline PGA = 2, Overall): 66.5 days | Duration of 1st Episode, Mean (SD) (Baseline PGA = 2, Overall): 177.8 (92.43) days | Duration of 1st Episode, Median (Baseline PGA = 2, Overall): 197.0 days | Duration of 1st Success, Mean (SD) (Baseline PGA = 2, Overall): 90.4 (72.34) days | Duration of 1st Success, Median (Baseline PGA = 2, Overall): 83.0 days | Duration of 2nd Episode, Mean (SD) (Baseline PGA = 2, Overall): 67.5 (52.79) days | Duration of 2nd Episode, Median (Baseline PGA = 2, Overall): 59.0 days | Duration of 2nd Success, Mean (SD) (Baseline PGA = 2, Overall): 31.9 (43.41) days | Duration of 2nd Success, Median (Baseline PGA = 2, Overall): 27.5 days | Duration of 3rd Episode, Mean (SD) (Baseline PGA = 2, Overall): 28.7 (27.50) days | Duration of 3rd Episode, Median (Baseline PGA = 2, Overall): 29.0 days | Duration of 3rd Success, Mean (SD) (Baseline PGA = 2, Overall): 29.0 (NE) days | Duration of 3rd Success, Median (Baseline PGA = 2, Overall): 29.0 days | Duration of Last Episode, Mean (SD) (Baseline PGA = 2, Overall): 173.2 (97.88) days | Duration of Last Episode, Median (Baseline PGA = 2, Overall): 197.0 days | Duration of Last Success, Mean (SD) (Baseline PGA = 2, Overall): 77.3 (73.84) days | Duration of Last Success, Median (Baseline PGA = 2, Overall): 56.0 days | Total Duration of Treatment Episodes, Mean (SD) (Baseline PGA = 2, Overall): 188.8 (87.61) days | Total Duration of Treatment Episodes, Median (Baseline PGA = 2, Overall): 200.0 days | Total Duration of Treatment Success, Mean (SD) (Baseline PGA = 2, Overall): 98.0 (74.01) days | Total Duration of Treatment Success, Median (Baseline PGA = 2, Overall): 84.0 days | Average Duration of Episodes, Mean (SD) [3]: 177.3 (95.45) days | Average Duration of Episodes, Median [3]: 197.0 days | Average Duration of Treatment Success, Mean (SD) [3]: 78.7 (71.03) days | Average Duration of Treatment Success, Median [3]: 57.0 days | Duration of 1st Episode, Mean (SD) [3]: 179.2 (94.49) days | Duration of 1st Episode, Median [3]: 197.0 days
